Test results from patent US20050019386A1 (priority 2001, published 2005).

What was measured:
[1] = tested on: two human glioblastoma in a nude model; settings: free form, 12.5 mg/kg/4 days; cited from earlier work
[2] = tested on: ovarian carcinoma (human) on a nude mouse; experiment: Oral application, tumour mass of human ovarian carcinoma on nude mouse; assay type: in vivo; settings: oral form of administration, Taxol 50 mg bolus

Compound: CC(=O)O[C@H]1C(=O)[C@@]2(C)[C@H]([C@H](OC(=O)c3ccccc3)[C@]3(O)C[C@H](OC(=O)[C@H](O)[C@@H](NC(=O)c4ccccc4)c4ccccc4)C(C)=C1C3(C)C)[C@]1(OC(C)=O)CO[C@@H]1C[C@@H]2O [unencapsulated taxol, paclitaxel]
- growth of the tumour [1]: significant reduction of the growth of the tumour
- effectivity determined on the basis of the tumour mass [2]: hardly being reduced
